Where two headings read alike, the source gives them in different places.
Tests used:
[1] = test system: Epstein-Barr virus (EBV); conditions: for IC50: IgG induction, 0.0005-30μM, EBV genomes by qPCR
[2] = in vitro; conditions: human
[3] = test system: EBV early protein EA-D; conditions: for EA-D expression (immunoblot) / level of hyperphosphorylated form of EA-D (top band): 24 hours after induction; for viral reactivation assessed by expression of EA-D, in words: concentration not stated at the place (Fig. 2: 1 and 10μM)
[4] = test system: Epstein-Barr virus (EBV); test: microbe, parasite or virus in culture; conditions: human gammaherpesvirus 4, Akata, 48 h
[5] = Cell viability of Akata cells, modified MTS assay; conditions: human, latently EBV-infected Akata cells
[6] = test system: Akata cells; test: Cell viability of Akata cells, modified MTS assay; conditions: Akata cells, 48 hours, 0.0005-30μM, modified MTS assay
[7] = test system: purified EBV-PK; conditions: ref Gershburg et al., 2004; Marschall et al., 2002; cited from earlier work
[8] = test system: human cytomegalovirus (HCMV) pUL97 protein kinase; conditions: 2002, cited from earlier work
[9] = test system: Akata cells
[10] = test system: EBV; conditions: ref Gershburg et al., 2004; Wang et al., 2009; Zacny et al., 1999; cited from earlier work
[11] = target: T1, EBV-encoded protein kinase (EBV-PK, BGLF4) (Epstein-Barr virus, UniProt P13288); test: In vitro kinase assay of GST-BGLF4; format: biochemical; conditions: 10μM inhibitor, MBP substrate, 50μM ATP, filter binding
T1 sequence (P13288 1-429): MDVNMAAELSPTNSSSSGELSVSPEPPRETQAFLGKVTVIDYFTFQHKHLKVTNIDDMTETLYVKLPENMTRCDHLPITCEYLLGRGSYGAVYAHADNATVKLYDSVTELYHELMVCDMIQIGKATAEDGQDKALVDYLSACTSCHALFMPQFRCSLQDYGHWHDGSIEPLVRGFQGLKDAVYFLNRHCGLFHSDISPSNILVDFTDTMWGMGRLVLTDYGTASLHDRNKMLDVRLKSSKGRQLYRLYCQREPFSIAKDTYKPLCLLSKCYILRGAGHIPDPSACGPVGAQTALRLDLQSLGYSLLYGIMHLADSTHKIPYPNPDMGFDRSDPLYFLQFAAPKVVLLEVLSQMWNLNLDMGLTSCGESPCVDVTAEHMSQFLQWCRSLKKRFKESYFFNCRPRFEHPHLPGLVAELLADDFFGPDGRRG

[12] = 10μM PKI, Akata cells, 48 hours after IgG induction

CO[C@@H]1[C@H](N(C)C(=O)c2ccccc2)C[C@H]2O[C@]1(C)n1c3ccccc3c3c4c(c5c6ccccc6n2c5c31)C(=O)NC4 [PKC-412]
effect on EBV replication in words ([1]; 10μM PKI, Akata cells, 48 hours after IgG induction, listed as PKC412): effective in inhibiting the EBV replication
CC50 at 48 h [2]: 56 nM
EA-D expression (immunoblot) ([3]; 1μM PKI, Fig. 2B): no EA-D expression was detected
viral reactivation assessed by expression of EA-D, in words [3]: block expression of EBV early protein EA-D
IC50 [4]: 31 nM

Nc1ncnc2c1c(I)cn2[C@@H]1O[C@H](CO)[C@@H](O)[C@H]1O [5-Iodotubercidin]
effect on EBV replication in words [1, 12]: effective in inhibiting the EBV replication
IC50 ([1]; Akata cells, 48 hours): 890 nM
EA-D expression (immunoblot) ([3]; 1μM PKI, Fig. 2B): did not affect the expression of EA-D

CC(=O)c1c(O)c(C)c(O)c(Cc2c(O)c3c(c(C(=O)/C=C/c4ccccc4)c2O)OC(C)(C)C=C3)c1O [Rottlerin]
effect on EBV replication in words [1, 12]: effective in inhibiting the EBV replication
TI (therapeutic index, CC50/IC50 ratio) ([1]; Akata cells, 48 hours): 1
CC50 at 48 h [2]: 1000 nM
EA-D expression (immunoblot) ([3]; 1μM PKI, Fig. 2B): did not affect the expression of EA-D
IC50 [4]: 983 nM

O=c1c(O)c(-c2ccc(O)c(O)c2)oc2cc(O)cc(O)c12 [quercetin]
effect on EBV replication in words [1, 12]: lack of activity

O=C1Cc2c([nH]c3ccc(Br)cc23)-c2ccccc2N1 [Kenpaullone]
TI (therapeutic index, CC50/IC50 ratio) [1]: 8
effect on EBV replication in words [1, 12]: effective in inhibiting the EBV replication
CC50 at 48 h [5]: 5130 nM
EA-D expression (immunoblot) ([3]; 1μM PKI, Fig. 2B): did not affect the expression of EA-D
IC50 [4]: 681 nM

COC(=O)/C=C/c1cc(O)ccc1O [Erbstatin analog]
effect on EBV replication in words [1, 12]: inhibited EBV replication in cells
IC50 ([1]; Akata cells, 48 hours): 2370 nM
EA-D expression (immunoblot) ([3]; 1μM PKI, Fig. 2B): did not affect the expression of EA-D
viral reactivation assessed by expression of EA-D, in words [3]: did not inhibit viral reactivation

Nc1nc2c(ncn2COCCO)c(=O)[nH]1 [ACV, acyclovir]
reduction of viral replication relative to DMSO treatment ([1]; 50μM ACV, Akata cells, 48 hours after IgG induction): 88±6%
viability at 48 h, 50 μM [2]: 89 ± 4%

Cn1cc(C2=C(c3cn(CCCSC(=N)N)c4ccccc34)C(=O)NC2=O)c2ccccc21 [Ro 31-8220]
effect on EBV replication in words [1, 12]: effective in inhibiting the EBV replication
TI (therapeutic index, CC50/IC50 ratio) ([1]; Akata cells, 48 hours): 3
IC50 ([1]; Akata cells, 48 hours): 398 nM
CC50 [6]: 1150 nM
EA-D expression (immunoblot) ([3]; 1μM PKI, Fig. 2B): did not affect the expression of EA-D
level of hyperphosphorylated form of EA-D (top band) ([3]; 1μM PKI, Fig. 2B): increased level of this form

CN[C@@H]1C[C@H]2O[C@@](C)([C@@H]1OC)n1c3ccccc3c3c4c(c5c6ccccc6n2c5c31)C(=O)NC4 [Staurosporine]
effect on EBV replication in words [1, 12]: inhibited viral replication
effect on EBV replication in words ([1]; 10μM PKI, Akata cells, 48 hours after IgG induction, listed as Staurosporin): significantly reduced the EBV genome copy numbers
CC50 [2]: 4 nM
viral reactivation assessed by expression of EA-D, in words [3]: block expression of EBV early protein EA-D

N#CCCn1c2ccccc2c2c3c(c4c5ccccc5[nH]c4c21)C(=O)NC3 [NGIC-I, non-glycosidic indolocarbazole I]
effect on activity of purified EBV-PK [7]: did not inhibit
concentration inhibiting pUL97 autophosphorylation activity ([8]; ref Marschall et al.): 0.5 μM

O=c1cc(N2CCOCC2)oc2c(-c3ccccc3)cccc12 [LY 294002]
TI (therapeutic index, CC50/IC50 ratio) [1]: 3
CC50 [2]: 6160 nM
EA-D expression (immunoblot) ([3]; 1μM PKI, Fig. 2B): intermediate
level of hyperphosphorylated form of EA-D (top band) ([3]; 1μM PKI, Fig. 2B): more pronounced effect on the levels of the hyperphosphorylated form of EA-D
IC50 [4]: 1840 nM

N#CC(=C(/N)Sc1ccccc1N)/C(C#N)=C(/N)Sc1ccccc1N [U-0126]
TI (therapeutic index, CC50/IC50 ratio) [1]: 13
effect on EBV replication in words [1, 12]: effective in inhibiting the EBV replication
IC50 ([1]; Akata cells, 48 hours): 552 nM
CC50 [9]: 7380 nM
EA-D expression (immunoblot) ([3]; 1μM PKI, Fig. 2B): did not affect the expression of EA-D
EA-D expression (immunoblot) ([3]; 10μM PKI, Fig. 2A): remain relatively high
viral reactivation assessed by expression of EA-D, in words [3]: did not inhibit viral reactivation

CC(C)(C)c1cc(C=C(C#N)C#N)cc(C(C)(C)C)c1O [Tyrphostin 9]
TI (therapeutic index, CC50/IC50 ratio) ([1]; Akata cells, 48 hours): 3
IC50 ([1]; Akata cells, 48 hours): 217 nM
CC50 [6]: 573 nM
EA-D expression (immunoblot) ([3]; 1μM PKI, Fig. 2B): did not affect the expression of EA-D

Cc1ccc(S(=O)(=O)/C=C/C#N)cc1 [BAY 11-7082]
effect on EBV replication in words ([1]; 10μM PKI, Akata cells, 48 hours after IgG induction, listed as BAY-11-7082): effective in inhibiting the EBV replication
effect on EBV replication in words ([1]; 10μM PKI, Akata cells, 48 hours after IgG induction, listed as Bay 11-7082): inhibited viral replication
IC50 ([1]; Akata cells, 48 hours): 208 nM
CC50 [9]: 2640 nM
EA-D expression (immunoblot) ([3]; 1μM PKI, Fig. 2B): intermediate
level of hyperphosphorylated form of EA-D (top band) ([3]; 1μM PKI, Fig. 2B): more pronounced effect on the levels of the hyperphosphorylated form of EA-D
expression levels of housekeeping genes (β-actin) ([3]; 10μM, Fig. 2A): loss of β-actin

CC(C)Nc1nc2cc(Cl)c(Cl)cc2n1[C@H]1O[C@@H](CO)[C@H](O)[C@@H]1O [MBV, maribavir]
effect on activity of purified EBV-PK [7]: did not inhibit
concentration inhibiting pUL97 autophosphorylation activity ([8]; ref Biron et al., Hamirally et al., 2009): 1 μM
effect on EBV replication [10]: inhibits EBV replication

COC[C@H]1OC(=O)c2coc3c2[C@@]1(C)C1=C(C3=O)[C@@H]2CCC(=O)[C@@]2(C)C[C@H]1OC(C)=O [Wortmannin]
TI (therapeutic index, CC50/IC50 ratio) [1]: 13
effect on EBV replication in words [1, 12]: effective in inhibiting the EBV replication
CC50 at 48 h [2]: 4690 nM
EA-D expression (immunoblot) ([3]; 1μM PKI, Fig. 2B): no EA-D expression was detected
viral reactivation assessed by expression of EA-D, in words [3]: inhibited EA-D expression
IC50 [4]: 367 nM

COC(=O)[C@@]1(O)C[C@H]2O[C@]1(C)n1c3ccccc3c3c4c(c5c6ccccc6n2c5c31)C(=O)NC4 [K252A]
TI (therapeutic index, CC50/IC50 ratio) [1]: 6
inhibition of EBV replication relative to DMSO treatment ([1]; 10μM PKI, Akata cells, 48 hours after IgG induction, mean ± sem of 3 experiments): 92±6%
IC50 ([1]; Akata cells, 48 hours): 14 nM
CC50 [9]: 80 nM
inhibition of GST/EBV-PK activity relative to DMSO [11]: about 75%
EA-D expression (immunoblot) ([3]; 1μM PKI, Fig. 2B): no EA-D expression was detected
viral reactivation assessed by expression of EA-D, in words [3]: block expression of EBV early protein EA-D
